The CC50 is the concentration that lowers cell viability or growth by half.

The record followed here is ChEMBL document CHEMBL4513161, “CO-ADD screening of MMV (CH) - Pandemic Response Box” (2021).

In brackets after ≈: the same amount, converted by molar mass. Where a name gives a salt, the structure may show the parent alone. Bounds are passed on as bounds.

Experiment [1] has as its system Pseudomonas aeruginosa. The experiment can be described thus: Antibacterial activity against Pseudomonas aeruginosa PAO397 [PAO1 d(mexAB-oprM) d(mexCD-oprJ) d(mexEF-oprN) d(mexJKL) d(mexXY) d(opmH)] (CO-ADD:GN_211); MIC in CAMBH media using NBS plates, by OD(600). It counts as functional. Particulars: ASSAY_TEST Inhibition of Bacterial Growth, detection method Absorption (OD600), MEDIA CAMHB, plate type 384well, CORNING #3640, time 18 hr.

A further experiment has as its system HEK293. The experiment can be described thus: cells. Particulars: ASSAY_TEST Inhibition of Cell Viability, detection method Resazurin, Fluorescence (ex560/em590), MEDIA DMEM with 10% FBS, plate type 384well, TC, CORNING #3712, time 18 hr, read-out: CC50. The class given is functional, Homo sapiens, ATCC CRL1573.
In experiment [2] the test system is Pseudomonas aeruginosa. The experiment can be described thus: microbe, parasite or virus in culture. Particulars: ATCC 27853, 18 h, ASSAY_TEST Inhibition of Bacterial Growth, detection method Absorption (OD600), MEDIA CAMHB, plate type 384well, NBS, CORNING #3640.
A further experiment has as its system Staphylococcus aureus. The experiment in a line: microbe, parasite or virus in culture. Particulars: ATCC 43300, 18 h, ASSAY_TEST Inhibition of Bacterial Growth, detection method Absorption (OD600), MEDIA CAMHB, plate type 384well, NBS, CORNING #3640.
The test system of another experiment is Escherichia coli. The experiment in a line: microbe, parasite or virus in culture. Particulars: ATCC 25922, 18 h, ASSAY_TEST Inhibition of Bacterial Growth, detection method Absorption (OD600), MEDIA CAMHB, plate type 384well, NBS, CORNING #3640.
In the next experiment the test system is Candida albicans. The experiment in a line: microbe, parasite or virus in culture. Particulars: ATCC 90028, ASSAY_TEST Inhibition of Fungal Growth, detection method Absorption (OD530), plate type 384well, NBS, CORNING #3640.
A further experiment has as its system Klebsiella pneumoniae. The experiment in a line: microbe, parasite or virus in culture. To be noted: ATCC 700603, 18 h, ASSAY_TEST Inhibition of Bacterial Growth, detection method Absorption (OD600), MEDIA CAMHB, plate type 384well, NBS, CORNING #3640.
The subject of another experiment is Acinetobacter baumannii. The experiment can be described thus: microbe, parasite or virus in culture. Particulars: ATCC 19606, 18 h, ASSAY_TEST Inhibition of Bacterial Growth, detection method Absorption (OD600), MEDIA CAMHB, plate type 384well, NBS, CORNING #3640.
Setting [3] is: Homo sapiens, ATCC CRL1573, HEK293.

With `O=C(NCc1cccc2ccccc12)c1cccs1`, the MIC with Pseudomonas aeruginosa [1], in the experiment on Pseudomonas aeruginosa [2], with Staphylococcus aureus, against Cryptococcus neoformans, against Escherichia coli and with Candida albicans was greater than 20 µM in each case. Besides, the MIC against Klebsiella pneumoniae and in the experiment with Acinetobacter baumannii was greater than 20 µM throughout. Also, the half-maximal cytotoxic concentration (CC50) in the experiment on HEK293 (setting [3]) was greater than 20 µM.
`COc1ccc(C2CNC(=O)C2)cc1OC1CCCC1` (configuration not stated) [ROLIPRAM]: the MIC in the experiment with Pseudomonas aeruginosa [1], against Pseudomonas aeruginosa [2], against Staphylococcus aureus, with Cryptococcus neoformans, against Escherichia coli and in the experiment with Candida albicans was greater than 20 µM throughout. Further, the MIC in the experiment with Klebsiella pneumoniae and against Acinetobacter baumannii was greater than 20 µM each time. Further, the CC50 in the experiment on HEK293 (setting [3]) was greater than 20 µM.
As to `Fc1ccc(-c2nc(-c3c[nH]c4ccc(Br)cc34)[nH]c2-c2ccc(F)cc2)cc1`, the MIC against Pseudomonas aeruginosa [1], with Pseudomonas aeruginosa [2], with Staphylococcus aureus, with Cryptococcus neoformans, against Escherichia coli and against Candida albicans was greater than 20 µM throughout. In addition, the MIC against Klebsiella pneumoniae and in the experiment on Acinetobacter baumannii was greater than 20 µM each time. Besides, in the experiment on HEK293 (setting [3]), the half-maximal cytotoxic concentration (CC50) was determined as 9.15 µM.
Consider `O=C(Nc1cccc(C2=NCCN2)c1)c1ccc(-c2ccc(C(=O)Nc3cccc(C4=NCCN4)c3)cc2)cc1`, for which the MIC is 5 µM (≈ 2.64 µg/mL) against Pseudomonas aeruginosa [1]; greater than 20 µM in the experiment with Pseudomonas aeruginosa [2]; 0.625 µM (≈ 0.33 µg/mL) against Staphylococcus aureus; greater than 20 µM against Cryptococcus neoformans; 2.5 µM (≈ 1.32 µg/mL) with Escherichia coli; greater than 20 µM against Candida albicans. Further, the MIC against Klebsiella pneumoniae and against Acinetobacter baumannii was greater than 20 µM throughout. Further, the cytotoxic concentration (CC50) with HEK293 (setting [3]) was greater than 20 µM.
Take `CCc1ccccc1OCCN1CCCCCC1`: the MIC in the experiment on Pseudomonas aeruginosa [1], with Pseudomonas aeruginosa [2], against Staphylococcus aureus, with Cryptococcus neoformans, with Escherichia coli and in the experiment with Candida albicans was greater than 20 µM in each case. For the same compound, the MIC in the experiment on Klebsiella pneumoniae and against Acinetobacter baumannii was greater than 20 µM in each case. The CC50 in the experiment with HEK293 (setting [3]) is greater than 20 µM.
Take `Cc1nc2ccc(Cl)cc2c(-c2ccccc2)c1CC(=O)O`: the MIC against Pseudomonas aeruginosa [1], in the experiment with Pseudomonas aeruginosa [2], against Staphylococcus aureus, in the experiment on Cryptococcus neoformans, against Escherichia coli and against Candida albicans was greater than 20 µM each time. Besides, the MIC with Klebsiella pneumoniae and in the experiment with Acinetobacter baumannii was greater than 20 µM each time. In the experiment on HEK293 (setting [3]), the 50% cytotoxic concentration (CC50) is greater than 20 µM.
Regarding `O=C(NCc1ccccc1Cl)c1cnc2ccccc2n1`, the MIC against Pseudomonas aeruginosa [1], with Pseudomonas aeruginosa [2], against Staphylococcus aureus, against Cryptococcus neoformans, in the experiment with Escherichia coli and in the experiment on Candida albicans was greater than 20 µM each time. In addition, the MIC in the experiment with Klebsiella pneumoniae and against Acinetobacter baumannii was greater than 20 µM throughout. Also, the cytotoxic concentration (CC50) in the experiment with HEK293 (setting [3]) was greater than 20 µM.
As for `CO/N=C(\C(=O)N[C@@H]1C(=O)N2C(C(=O)OCOC(=O)C(C)(C)C)=C(/C=C\c3scnc3C)CS[C@H]12)c1csc(N)n1` [CEFDITOREN PIVOXIL], the MIC with Pseudomonas aeruginosa [1], against Pseudomonas aeruginosa [2], against Staphylococcus aureus, against Cryptococcus neoformans, with Escherichia coli and in the experiment with Candida albicans was greater than 20 µM throughout. For the same compound, the MIC with Klebsiella pneumoniae and against Acinetobacter baumannii was greater than 20 µM throughout. Besides, the CC50 in the experiment with HEK293 (setting [3]) was greater than 20 µM.
With `COc1ccc(C(C)(C)C)cc1NC(=O)C(=O)c1ccc(OCCN2CCOCC2)c2ccccc12`, the MIC with Pseudomonas aeruginosa [1], against Pseudomonas aeruginosa [2], against Staphylococcus aureus, in the experiment with Cryptococcus neoformans, against Escherichia coli and against Candida albicans was greater than 20 µM in each case. Besides, the MIC in the experiment on Klebsiella pneumoniae and in the experiment with Acinetobacter baumannii was greater than 20 µM in each case. Also, in the experiment on HEK293 (setting [3]), the CC50 is greater than 20 µM.
Consider `CCN(CC)CCCC(C)Nc1ccnc2cc(Cl)ccc12` (configuration not stated) [CHLOROQUINE], for which the MIC in the experiment on Pseudomonas aeruginosa [1], against Pseudomonas aeruginosa [2], against Staphylococcus aureus, against Cryptococcus neoformans, with Escherichia coli and against Candida albicans was greater than 20 µM throughout. For the same compound, the MIC against Klebsiella pneumoniae and in the experiment on Acinetobacter baumannii was greater than 20 µM throughout. Further, the CC50 in the experiment with HEK293 (setting [3]) was greater than 20 µM.
For the compound `Cc1c(F)cccc1NC(=O)Nc1ccc(Cl)c(S(=O)(=O)[C@H]2CCCNC2)c1O`, the MIC with Pseudomonas aeruginosa [1], with Pseudomonas aeruginosa [2], against Staphylococcus aureus, with Cryptococcus neoformans, against Escherichia coli and in the experiment with Candida albicans was greater than 20 µM each time. The MIC against Klebsiella pneumoniae and in the experiment on Acinetobacter baumannii was greater than 20 µM each time. Besides, the CC50 with HEK293 (setting [3]) was 12 µM.
`COc1ccccc1NC(=O)c1ccccc1Sc1ccc([N+](=O)[O-])cc1`: the MIC in the experiment with Pseudomonas aeruginosa [1], against Pseudomonas aeruginosa [2], against Staphylococcus aureus, with Cryptococcus neoformans, in the experiment on Escherichia coli and with Candida albicans was greater than 20 µM in each case. The MIC against Klebsiella pneumoniae and with Acinetobacter baumannii was greater than 20 µM throughout. In addition, the 50% cytotoxic concentration (CC50) in the experiment with HEK293 (setting [3]) was greater than 20 µM.
With `CCCCC(CC)CNC(=N)NC(=N)NCCCCCCNC(=N)NC(=N)NCC(CC)CCCC` (configuration not stated) [ALEXIDINE DIHYDROCHLORIDE], the MIC is 5 µM against Pseudomonas aeruginosa [1]; 5 µM against Pseudomonas aeruginosa [2]; no more than 0.156 µM in the experiment on Staphylococcus aureus; no more than 0.156 µM in the experiment with Cryptococcus neoformans; 1.25 µM in the experiment with Escherichia coli; 0.625 µM in the experiment with Candida albicans. The figures for the MIC in the experiment on Klebsiella pneumoniae and in the experiment with Acinetobacter baumannii were 5 µM and 10 µM, respectively. Besides, the CC50 in the experiment on HEK293 (setting [3]) turned out to be 2.61 µM.
Take `NC(=O)C(c1ccccc1)(c1ccccc1)[C@H]1CCCN(CCc2ccc3c(c2)CCO3)C1`: the MIC was 20 µM (≈ 8.81 µg/mL) against Pseudomonas aeruginosa [1]; greater than 20 µM with Pseudomonas aeruginosa [2]; greater than 20 µM in the experiment on Staphylococcus aureus; greater than 20 µM against Cryptococcus neoformans; greater than 20 µM in the experiment with Escherichia coli; greater than 20 µM in the experiment with Candida albicans. Besides, the MIC against Klebsiella pneumoniae and in the experiment with Acinetobacter baumannii was greater than 20 µM in each case. Besides, the CC50 with HEK293 (setting [3]) was greater than 20 µM.
`COc1cc(Cc2cnc(N)nc2N)c2c(c1OC)OC(C1CC1)C=C2` (configuration not stated): the MIC was 5 µM (≈ 1.77 µg/mL) in the experiment on Pseudomonas aeruginosa [1]; greater than 20 µM against Pseudomonas aeruginosa [2]; 2.5 µM (≈ 0.886 µg/mL) in the experiment with Staphylococcus aureus; greater than 20 µM in the experiment with Cryptococcus neoformans; greater than 20 µM in the experiment with Escherichia coli; greater than 20 µM with Candida albicans. For the same compound, the MIC in the experiment with Klebsiella pneumoniae and with Acinetobacter baumannii was greater than 20 µM in each case. Also, the CC50 in the experiment on HEK293 (setting [3]) is greater than 20 µM.
On to `CC(C)Oc1ccc(-n2cnc3cc(/C=C\c4ccc(C(C)(C)O)cc4)ccc32)cc1` [LHF-535], for which the MIC against Pseudomonas aeruginosa [1], with Pseudomonas aeruginosa [2], against Staphylococcus aureus, with Cryptococcus neoformans, against Escherichia coli and in the experiment with Candida albicans was greater than 20 µM each time. The MIC against Klebsiella pneumoniae and against Acinetobacter baumannii was greater than 20 µM in each case. In the experiment on HEK293 (setting [3]), the CC50 stood at 10.6 µM.
Consider `N=c1n(CCN2CCCCC2)c2ccccc2n1CC(O)COc1ccc(Cl)cc1Cl` (configuration not stated), for which the cytotoxic concentration (CC50) with HEK293 (setting [3]) came out at 6.89 µM. Also, the MIC in the experiment on Staphylococcus aureus, in the experiment with Cryptococcus neoformans, against Escherichia coli, against Candida albicans, in the experiment on Klebsiella pneumoniae and against Acinetobacter baumannii was greater than 20 µM throughout.
Consider `Clc1ccc(COC(Cn2ccnc2)c2ccc(Cl)cc2Cl)c(Cl)c1` (configuration not stated), for which the figures for the MIC with Pseudomonas aeruginosa [1] and against Cryptococcus neoformans were greater than 20 µM and 0.625 µM (≈ 0.26 µg/mL), respectively. The half-maximal cytotoxic concentration (CC50) in the experiment with HEK293 was greater than 20 µM.
For the compound `CC1(C)[C@H](C(=O)O)N2C(=O)C[C@H]2S1(=O)=O` [SULBACTAM], the MIC was greater than 20 µM against Pseudomonas aeruginosa [1]; 2.5 µM (≈ 0.583 µg/mL) against Pseudomonas aeruginosa [2]; greater than 20 µM against Staphylococcus aureus; greater than 20 µM against Cryptococcus neoformans; greater than 20 µM in the experiment with Escherichia coli; greater than 20 µM with Candida albicans. The compound also registered an MIC with Acinetobacter baumannii greater than 20 µM. Besides, in the experiment with HEK293 (setting [3]), the CC50 was greater than 20 µM.
With `CCN(CC)CCn1c(=N)n(CC(O)COc2ccc(Cl)cc2Cl)c2ccccc21` (configuration not stated), the CC50 with HEK293 (setting [3]) worked out at 4.49 µM. The MIC was 20 µM (≈ 9.03 µg/mL) against Pseudomonas aeruginosa [2]; greater than 20 µM in the experiment with Staphylococcus aureus; greater than 20 µM in the experiment with Cryptococcus neoformans; greater than 20 µM with Escherichia coli; greater than 20 µM against Candida albicans; greater than 20 µM against Klebsiella pneumoniae. This compound registered an MIC with Acinetobacter baumannii greater than 20 µM.
For the compound `CC(Oc1ccc(Cl)cc1Cl)C(=O)NCc1ccc2c(c1)OCO2` (configuration not stated), the CC50 in the experiment with HEK293 (setting [3]) is greater than 20 µM. The same compound gave an MIC in the experiment with Cryptococcus neoformans greater than 20 µM.
